Patent US20120283295A1, “INDAZOLE DERIVATIVES AND THEIR USE FOR BLOCKADING VOLTAGE DEPENDENT SODIUM CHANNELS” (University College London, priority 2009, published 2012)
Like-named read-outs stand apart in the source and are kept apart here.

What was measured:
[1] = tested on: voltage dependent sodium channels; assay: Sodium channel activity, guanidine flux; format: cell-based
Experimental: (§2) Biological assays to determine sodium channel activity, neuroprotection and Nav isoform selectivity were carried out according to the protocols set out in Clutterbuck et al (2009), J. Med. Chem. 52, 2694-2707.

[2] = biological target: Nav1.7 (Homo sapiens, UniProt Q15858); assay: Nav isoform selectivity, Nav1.7; format: cell-based; design: concentration or dose not given beside the values
[3] = biological target: T1, Nav1.5 (Homo sapiens, UniProt Q14524); assay: Nav isoform selectivity, Nav1.5
[4] = biological target: Nav1.6 (Homo sapiens, UniProt Q9UQD0); assay: Nav isoform selectivity, Nav1.6; format: cell-based; design: concentration or dose not given beside the values
[5] = biological target: Nav1.4 (Homo sapiens, UniProt P35499); assay: Nav isoform selectivity, Nav1.4; format: cell-based; design: concentration or dose not given beside the values
Sequence of Nav1.4 (P35499 whole entry, canonical isoform): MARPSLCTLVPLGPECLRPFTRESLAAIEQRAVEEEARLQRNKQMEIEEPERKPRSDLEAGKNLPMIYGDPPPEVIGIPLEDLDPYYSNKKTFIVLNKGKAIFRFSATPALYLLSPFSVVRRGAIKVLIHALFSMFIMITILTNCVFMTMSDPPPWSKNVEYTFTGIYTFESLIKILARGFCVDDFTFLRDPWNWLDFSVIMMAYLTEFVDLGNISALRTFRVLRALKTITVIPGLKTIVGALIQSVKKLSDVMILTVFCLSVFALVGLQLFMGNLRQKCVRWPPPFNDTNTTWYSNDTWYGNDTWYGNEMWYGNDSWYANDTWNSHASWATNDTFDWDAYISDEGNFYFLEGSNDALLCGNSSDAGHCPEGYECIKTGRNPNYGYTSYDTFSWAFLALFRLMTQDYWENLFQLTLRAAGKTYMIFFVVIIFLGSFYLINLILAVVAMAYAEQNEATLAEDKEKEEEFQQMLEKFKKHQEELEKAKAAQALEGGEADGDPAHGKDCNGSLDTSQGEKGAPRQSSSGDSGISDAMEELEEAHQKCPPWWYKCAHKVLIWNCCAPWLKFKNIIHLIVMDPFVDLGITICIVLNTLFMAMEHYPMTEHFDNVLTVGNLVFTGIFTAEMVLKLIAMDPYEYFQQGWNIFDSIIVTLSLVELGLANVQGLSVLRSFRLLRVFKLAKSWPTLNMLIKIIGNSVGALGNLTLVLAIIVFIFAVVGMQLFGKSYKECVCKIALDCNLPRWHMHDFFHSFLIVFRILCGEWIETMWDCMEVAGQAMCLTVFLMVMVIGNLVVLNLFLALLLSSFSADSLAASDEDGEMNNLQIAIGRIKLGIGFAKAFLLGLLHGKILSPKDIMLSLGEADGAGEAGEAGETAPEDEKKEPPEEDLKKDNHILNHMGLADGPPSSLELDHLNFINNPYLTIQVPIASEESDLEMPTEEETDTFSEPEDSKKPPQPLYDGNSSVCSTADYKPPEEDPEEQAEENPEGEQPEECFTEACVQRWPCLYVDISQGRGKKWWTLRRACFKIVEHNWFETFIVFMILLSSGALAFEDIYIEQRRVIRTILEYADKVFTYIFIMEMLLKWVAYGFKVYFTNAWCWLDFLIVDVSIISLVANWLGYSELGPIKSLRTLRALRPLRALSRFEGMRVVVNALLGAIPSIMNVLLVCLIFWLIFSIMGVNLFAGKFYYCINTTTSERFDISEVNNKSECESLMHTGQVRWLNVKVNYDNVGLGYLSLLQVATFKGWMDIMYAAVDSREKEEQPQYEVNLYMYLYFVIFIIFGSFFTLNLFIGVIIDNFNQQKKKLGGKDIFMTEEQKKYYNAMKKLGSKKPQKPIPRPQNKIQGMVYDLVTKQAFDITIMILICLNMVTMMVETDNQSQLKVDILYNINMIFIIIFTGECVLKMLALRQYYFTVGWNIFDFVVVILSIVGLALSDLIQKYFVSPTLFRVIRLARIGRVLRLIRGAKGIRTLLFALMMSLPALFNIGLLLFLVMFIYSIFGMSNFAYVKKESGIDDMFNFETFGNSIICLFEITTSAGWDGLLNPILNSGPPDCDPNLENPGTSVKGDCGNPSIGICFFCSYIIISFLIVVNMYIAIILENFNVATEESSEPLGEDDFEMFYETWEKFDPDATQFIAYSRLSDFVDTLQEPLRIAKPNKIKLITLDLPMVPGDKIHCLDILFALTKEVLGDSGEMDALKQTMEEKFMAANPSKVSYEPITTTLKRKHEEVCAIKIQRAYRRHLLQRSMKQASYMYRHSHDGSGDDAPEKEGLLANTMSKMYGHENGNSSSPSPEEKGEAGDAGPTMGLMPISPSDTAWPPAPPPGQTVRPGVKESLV

[6] = biological target: Nav1.2 (Homo sapiens, UniProt Q99250); assay: Nav isoform selectivity, Nav1.2 (EP); format: cell-based; design: concentration or dose not given beside the values
[7] = biological target: Nav1.3 (Homo sapiens, UniProt Q9NY46); assay: Nav isoform selectivity, Nav1.3; format: cell-based; design: concentration or dose not given beside the values
Sequence of Nav1.3 (Q9NY46 whole entry, canonical isoform): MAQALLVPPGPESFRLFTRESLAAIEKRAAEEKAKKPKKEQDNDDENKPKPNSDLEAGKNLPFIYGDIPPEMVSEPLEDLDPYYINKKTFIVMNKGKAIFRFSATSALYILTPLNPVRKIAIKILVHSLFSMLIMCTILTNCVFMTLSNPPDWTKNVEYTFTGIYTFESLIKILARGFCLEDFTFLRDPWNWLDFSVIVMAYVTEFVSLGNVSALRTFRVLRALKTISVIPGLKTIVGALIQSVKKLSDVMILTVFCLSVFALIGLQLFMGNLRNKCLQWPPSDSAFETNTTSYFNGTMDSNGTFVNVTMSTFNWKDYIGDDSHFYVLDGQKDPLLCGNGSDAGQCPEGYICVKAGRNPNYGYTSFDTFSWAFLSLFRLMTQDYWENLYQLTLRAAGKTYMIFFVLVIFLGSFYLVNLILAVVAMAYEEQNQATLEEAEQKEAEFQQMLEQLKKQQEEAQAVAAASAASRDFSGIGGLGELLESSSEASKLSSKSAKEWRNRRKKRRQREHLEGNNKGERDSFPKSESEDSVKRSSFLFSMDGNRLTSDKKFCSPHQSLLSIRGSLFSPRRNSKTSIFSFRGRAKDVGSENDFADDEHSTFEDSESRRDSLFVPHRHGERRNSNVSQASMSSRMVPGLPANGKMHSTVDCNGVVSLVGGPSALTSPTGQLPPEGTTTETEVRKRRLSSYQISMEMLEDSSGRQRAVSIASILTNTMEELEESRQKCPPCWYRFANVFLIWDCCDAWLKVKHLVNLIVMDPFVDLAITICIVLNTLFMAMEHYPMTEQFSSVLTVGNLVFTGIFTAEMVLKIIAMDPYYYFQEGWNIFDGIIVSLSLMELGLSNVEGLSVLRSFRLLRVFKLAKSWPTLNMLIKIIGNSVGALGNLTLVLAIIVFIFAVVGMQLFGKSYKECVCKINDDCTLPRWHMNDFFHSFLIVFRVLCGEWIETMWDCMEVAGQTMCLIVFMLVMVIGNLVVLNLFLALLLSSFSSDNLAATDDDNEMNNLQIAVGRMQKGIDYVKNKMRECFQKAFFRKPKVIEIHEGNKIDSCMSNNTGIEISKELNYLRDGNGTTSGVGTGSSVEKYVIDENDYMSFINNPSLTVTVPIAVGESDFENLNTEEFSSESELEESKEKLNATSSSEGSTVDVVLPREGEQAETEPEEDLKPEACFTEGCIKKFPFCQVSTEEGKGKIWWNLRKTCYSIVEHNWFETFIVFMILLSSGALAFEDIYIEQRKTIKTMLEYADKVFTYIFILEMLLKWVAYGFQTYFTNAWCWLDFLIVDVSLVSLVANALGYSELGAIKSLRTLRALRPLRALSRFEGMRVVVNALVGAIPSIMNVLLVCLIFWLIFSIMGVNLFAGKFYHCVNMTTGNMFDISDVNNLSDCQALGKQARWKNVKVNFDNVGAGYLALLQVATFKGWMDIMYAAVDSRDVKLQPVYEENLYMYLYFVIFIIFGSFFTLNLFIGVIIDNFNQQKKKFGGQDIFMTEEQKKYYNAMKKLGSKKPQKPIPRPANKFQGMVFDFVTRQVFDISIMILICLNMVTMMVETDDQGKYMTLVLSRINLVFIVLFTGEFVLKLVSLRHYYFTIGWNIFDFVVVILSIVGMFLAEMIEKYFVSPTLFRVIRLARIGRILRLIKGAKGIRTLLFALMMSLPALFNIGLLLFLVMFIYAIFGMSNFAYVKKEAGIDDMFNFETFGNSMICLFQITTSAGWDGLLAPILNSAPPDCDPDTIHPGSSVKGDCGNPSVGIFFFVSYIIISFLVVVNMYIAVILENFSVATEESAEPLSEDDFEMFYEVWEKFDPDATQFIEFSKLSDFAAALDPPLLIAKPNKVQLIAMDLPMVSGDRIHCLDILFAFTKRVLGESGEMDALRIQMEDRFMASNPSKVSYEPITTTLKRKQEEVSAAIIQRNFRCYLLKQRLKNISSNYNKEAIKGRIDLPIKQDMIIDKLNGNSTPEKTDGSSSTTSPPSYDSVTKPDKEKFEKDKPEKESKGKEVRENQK

[8] = biological target: Nav1.1 (Homo sapiens, UniProt P35498); assay: Nav isoform selectivity, Nav1.1; format: cell-based
Experimental: as §2

[9] = biological target: Nav1.8 (Homo sapiens, UniProt Q9Y5Y9); assay: Nav isoform selectivity, Nav1.8; format: cell-based; design: concentration or dose not given beside the values
[10] = in vivo
Experimental: (§1) The immunosuppressive activity of Example 15 was investigated using a simple contact-hypersensitivity paradigm. […] (Data not shown). Therefore, it was not necessary to dose-titrate Example 15 in order to avoid the immunosuppression-induced neuroprotection that would mask any real neuroprotective action of Example 15. In order to limit animal usage required for a full-dose-response, as proof-of-principle, 10 mg/kg of Example 15 i.p. was selected as an initial dose for study. This dose was within the range used in humans for sodium channel-blocking agents (1-50 mg/kg p.o.), particularly when scaled to mouse (USDHHS, 2005), and was well below the maximum tolerated dose (>50 mg/kg/daily). This was investigated for a neuroprotective potential in an induced-relapse during experimental autoimmune encephalomyelitis (EAE).

[11] = tested on: lymph node proliferative responses; assay: Immunosuppressive activity, contact-hypersensitivity paradigm; format: in vivo; settings: daily i.p. 5, 25 and 50 mg/kg from a day before sensitization; compared to vehicle
Experimental: as §1
T cell proliferation per 5×10^5 lymph node cells or proliferation adjusted for the number of cells in the lymph nodes is shown in FIGS. 2 and 3.

[12] = tested on: induced-relapse EAE in ABH mice; assay: Induced-relapse experimental autoimmune encephalomyelitis (EAE); format: in vivo
Text: In many rodent models of MS, particularly during EAE the ABH mice, there is limited demyelination and nerve damage during the initial acute-phase of paralysis that occurs 2-3 weeks following sensitization (Baker et al. 1990, Jackson et al. 2005). Nerve damage and demyelination becomes more pronounced with disease duration and the development of relapsing disease (Baker et al. 1990). The neuroprotective potential of Example 15 was therefore examined in an induced-relapse EAE paradigm.
ABH mice were injected with 1 mg mouse spinal cord homogenate in Freunds adjuvant on days 0 and 7 p.i. to induce EAE and this was repeated on 27 p.i. to induce a relapse. Animals were injected daily i.p. with either vehicle or 10 mg/kg Example 15 from day 33 onwards. Animals were monitored for the development of clinical disease and the results represent: (A) The mean maximal clinical score, during the initial acute attack around day 15-20 and the clinical relapse around day 34-40, or the mean minimal clinical score during remission from paralytic attacks. (B) The mean daily clinical score following induction of relapse. (C) The time taken to fall from an accelerating rotorod was monitored pre-treatment on day 25 or on day 48 post-disease induction, when the experiment was terminated. (D) The spinal cords were removed and nerve content was measured using a neurofilament heavy chain (Nfh)-specific ELISA. The results represent the mean±SEM of 8 animals per group. *P<0.05, **P<0.01, ***P<0.001 compared to vehicle-treated animals.

[13] = biological target: T1, Nav1.5
[14] = 10 mg/kg daily i.p. from day 33, vs vehicle

SMILES | IC50 [1] | Nav isoform inhibition (%) Nav1.7 [2] | Nav isoform inhibition (%) Nav1.5 [3] | Nav isoform inhibition (%) Nav1.6 [4] | Nav isoform inhibition (%) Nav1.4 [5] | Nav isoform inhibition (%) Nav1.2 EP [6] | Nav isoform inhibition (%) Nav1.2 EP UD [6] | Nav isoform inhibition (%) Nav1.3 [7] | Nav isoform inhibition (%) Nav1.1 [8] | Nav isoform inhibition (%) Nav1.8 [9] | other results
CC(C)(C)OC(=O)NCc1noc(-c2nn(CCn3ccnc3)c3ccccc23)n1 [Example 1, tert-butyl (5-(1-(2-(1H-imidazol-1-yl)ethyl)-1H-indazol-3-yl)-1,2,4-oxadiazol-3-yl)methylcarbamate] | 102 µM |  |  |  |  |  |  |  |  |  | 
CC(C)(C)OC(=O)NCc1noc(-c2c3ccccc3nn2CCn2ccnc2)n1 [Example 2, tert-butyl (5-(2-(2-(1H-imidazol-1-yl)ethyl)-2H-indazol-3-yl)-1,2,4-oxadiazol-3-yl)methylcarbamate] | 11 µM |  |  |  |  |  |  |  |  |  | 
O=C(NCc1noc(-c2c3ccccc3nn2CCn2ccnc2)n1)c1ccccc1 [Example 5, N-((5-(2-(2-(1H-imidazol-1-yl)ethyl)-2H-indazol-3-yl)-1,2,4-oxadiazol-3-yl)methyl)benzamide] | 324 µM |  |  |  |  |  |  |  |  |  | 
COc1cccc(C(=O)NCc2noc(-c3c4ccccc4nn3CCn3ccnc3)n2)c1OC [Example 6, N-((5-(2-(2-(1H-imidazol-1-yl)ethyl)-2H-indazol-3-yl)-1,2,4-oxadiazol-3-yl)methyl)-2,3-dimethoxybenzamide] | 34 µM | 96% | 99% | 73% | 45% | 24.4% | 24.1% | 54% | 56% | 87% | 
COc1cccc(C(=O)NCc2noc(-c3c4ccccc4nn3CCn3ccnc3)n2)c1OC [Example 7, N-((5-(2-(2-(1H-imidazol-1-yl)ethyl)-2H-indazol-3-yl)-1,2,4-oxadiazol-3-yl)methyl)-2,3-dimethoxybenzamide] | 4 µM |  |  |  |  |  |  |  |  |  | 
O=C(NCc1noc(-c2c3ccccc3nn2CCn2ccnc2)n1)c1ccc(Cl)cc1 [Example 9, N-((5-(2-(2-(1H-imidazol-1-yl)ethyl)-2H-indazol-3-yl)-1,2,4-oxadiazol-3-yl)methyl)-4-chlorobenzamide] | 22 µM |  |  |  |  |  |  |  |  |  | 
O=C(NCc1noc(-c2c3ccccc3nn2CCn2ccnc2)n1)c1cccc(F)c1F [Example 10, N-((5-(2-(2-(1H-imidazol-1-yl)ethyl)-2H-indazol-3-yl)-1,2,4-oxadiazol-3-yl)methyl)-2,3-difluorobenzamide] |  | 81% | 84% | 76% | 77% |  |  | 51% | 54% | 84% | 
O=C(NCc1noc(-c2c3ccccc3nn2CCn2ccnc2)n1)c1ccc2ccccc2c1 [Example 11, N-((5-(2-(2-(1H-imidazol-1-yl)ethyl)-2H-indazol-3-yl)-1,2,4-oxadiazol-3-yl)methyl)-2-naphthamide] |  | 33% | 98% | 86% | 97% |  |  | 63% | 83% | 91% | 
O=C(NCc1noc(-c2c3ccccc3nn2CCn2ccnc2)n1)c1cccc(OC(F)(F)F)c1 [Example 14, N-((5-(2-(2-(1H-imidazol-1-yl)ethyl)-2H-indazol-3-yl)-1,2,4-oxadiazol-3-yl)methyl)-3-(trifluoromethoxy)benzamide] | 32 µM | 46% | 95% | 79% | 98% | 98.5% | not detected | 41% | 96% | 94% | 
O=C(NCc1noc(-c2nn(CCn3ccnc3)c3ccccc23)n1)c1ccccc1 [Example 15, N-((5-(1-(2-(1H-imidazol-1-yl)ethyl)-1H-indazol-3-yl)-1,2,4-oxadiazol-3-yl)methyl)benzamide] |  |  |  |  |  |  |  |  |  |  | Maximum tolerated dose [10]: > 50 mg/kg/daily; Inhibition of lymph node proliferative responses [11]: failed to inhibit; Loss of motor-function as a consequence of relapse, rotarod ([12]; 10 mg/kg daily i.p. from day 33, day 48, vs vehicle): significantly (P<0.001) reduced; Incidence, onset or maximum severity of relapsing EAE [12, 14]: did not significantly (P>0.05) inhibit; Nerve loss in spinal cord, neurofilament heavy chain ELISA [12, 14]: reduce nerve loss; Recovery of motor-function during remission (clinical score) [12, 14]: significantly (P<0.01) greater degree of recovery
COc1ccc(C(=O)NCc2noc(-c3nn(CCn4ccnc4)c4ccccc34)n2)c(OC)c1OC [Example 16, N-((5-(1-(2-(1H-imidazol-1-yl)ethyl)-1H-indazol-3-yl)-1,2,4-oxadiazol-3-yl)methyl)-2,3,4-trimethoxybenzamide] |  | 96% |  | 63% | 43% | 1.1% | 1.5% | 39% | 24% | 48% | Nav isoform inhibition (%) Nav1.5 [13]: 64%
COc1cccc(C(=O)NCc2noc(-c3nn(CCn4ccnc4)c4ccccc34)n2)c1OC [Example 30, N-((5-(1-(2-(1H-imidazol-1-yl)ethyl)-1H-indazol-3-yl)-1,2,4-oxadiazol-3-yl)methyl)-2,3-dimethoxybenzamide] |  | 94% | 71% | 77% | 33% | 0.1% | 6.4% | 14% | 26% | 62% | 
